In BindingDB's records for doi:10.7270/Q20Z71R6 (Burnham Center For Chemical Genomics, 2010) one finds EC50 data, which are given here for 11 compounds.

A value given as a limit tells only on which side of the number the result lay.

Sequence of Alkaline phosphatase, placental type (P05187 whole entry, looked up): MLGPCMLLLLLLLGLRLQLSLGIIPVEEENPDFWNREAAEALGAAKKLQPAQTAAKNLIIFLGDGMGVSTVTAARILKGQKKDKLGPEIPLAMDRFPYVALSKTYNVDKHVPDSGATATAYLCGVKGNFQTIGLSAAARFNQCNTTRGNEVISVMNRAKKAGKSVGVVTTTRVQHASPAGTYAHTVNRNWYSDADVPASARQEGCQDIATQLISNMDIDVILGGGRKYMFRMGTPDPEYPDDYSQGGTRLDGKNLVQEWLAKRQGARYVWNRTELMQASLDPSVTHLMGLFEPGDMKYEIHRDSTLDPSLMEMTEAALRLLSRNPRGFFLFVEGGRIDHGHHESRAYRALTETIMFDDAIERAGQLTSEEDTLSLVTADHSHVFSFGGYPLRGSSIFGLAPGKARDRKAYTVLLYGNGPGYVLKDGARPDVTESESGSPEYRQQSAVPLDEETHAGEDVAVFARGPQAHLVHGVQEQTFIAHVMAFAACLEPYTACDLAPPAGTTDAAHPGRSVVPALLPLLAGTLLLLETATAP

The experiment has as its target Alkaline phosphatase, placental type (Homo sapiens, UniProt P05187). Nature of the experiment: activation of placental alkaline phosphatase – biochemical, uHTS hits, luminescence, selectivity assay for human IAP activator project, dose response (AID 488888).
In general, EC50 refers to the midpoint of the concentration-response curve. Consider `Cc1c(C(=O)NN=Cc2ccc(O)cc2O)[nH][nH]c1=O`, for which the EC50 is 13.2 µM.

Take `O=C(O)[C@H]1O[C@@H](Oc2c(-c3ccc(O)c(O)c3)oc3cc(O)cc(=O)c-3c2O)[C@H](O)[C@@H](O)[C@@H]1O` [quercetin glucuronide]: the EC50 is more than 100 µM.

The compound `O=Nc1[nH]c(=O)c(CC(=O)c2ccccc2)nc1NO` [SMR000539633] gave an EC50 of 9.75 µM.

In turn, `Cn1c(C(C#N)C(=O)c2ccc(Br)s2)nc2ccccc21` (stereo unspecified) [MLS001167394] came in with an EC50 of 62.2 µM.

Turning to `COc1cccc(C=NNC(=O)c2[nH][nH]c(=O)c2C)c1O` [N'-[(E)-(5-methoxy-6-oxidanylidene-cyclohexa-2,4-dien-1-ylidene)methyl]-4-methyl-5-oxidanylidene-1,4-dihydropyrazole-3-carbohydrazide], a half-maximal effect (EC50) was put at 7.82 µM.

`O=c1c2ccccc2nc(N=NCc2c(O)ccc3ccccc23)n1O` [SMR000145705] came in with an EC50 of 35.2 µM.

`C=c1[nH]n(-c2nc3ccccc3[nH]2)c(=O)c1=CN(C)C` [(4E)-2-(1H-benzimidazol-2-yl)-4-(dimethylaminomethylidene)-5-methyl-pyrazol-3-one] displayed an EC50 of 15.3 µM.

The compound `CCOC(=O)c1c(C)[nH]c(C(=O)N/N=C/C2C=C([N+](=O)[O-])C=CC2=O)c1C` (stereo unspecified) [ethyl 2,4-dimethyl-5-[[[(E)-(3-nitro-6-oxocyclohexa-2,4-dien-1-ylidene)methyl]amino]carbamoyl]-1H-pyrrole-3-carboxylate] showed an EC50 of 23.2 µM.

Consider `O=C(Nn1c(O)csc1=S)C(=O)Nn1c(O)csc1=S` [SMR000349781], for which a half-maximal effect (EC50) was put at 14.5 µM.

With `CCc1ccc(CN=Nc2ncnc3nc[nH]c23)cc1` [MLS000419199], the EC50 turned out to be 13.4 µM.

Turning to `Cc1cc(Br)ccc1SCC(=O)OCC(=O)C(C#N)c1nc2ccccc2[nH]1` (stereo unspecified) [2-[(4-bromo-2-methylphenyl)thio]acetic acid [3-cyano-3-(1,3-dihydrobenzimidazol-2-ylidene)-2-oxopropyl] ester], the midpoint of the response, the EC50, lay at 25.5 µM.
